Laboratory results taken from patent US20070105162A1, “Monovalent avidin and streptavidin compositions” (Massachusetts Institute of Technology, priority 2005, published 2007).

Legend:
biotinylated cells = experiment: Binding of N23A, S27D streptavidin to biotinylated cells; assay type: cell-based
[1] = literature value; read-out: Kd for biotin, reported; cited from earlier work
[2] = test system: biotinylated AP-neuroligin-1 on hippocampal neurons; experiment: AP-neuroligin-1 clustering in hippocampal neurons labeled with avidin; assay type: cell-based, rat; settings: after a two hour incubation at 37° C.
Experimental: HeLa cells are grown in Dulbecco's Modified Eagle Medium (DMEM) with 10% Fetal Calf Serum, 50 U/mL penicillin and 50 μg/mL streptomycin. HeLa stably expressing AP-CFP-TM or Ala-CFP-TM have been previously described (Howarth, M. et al., Proc. Natl. Acad. Sci. USA 102: 7583-7588, 2005). Dissociated primary neuronal cultures are prepared from Embryonic Day 18 or 19 (E18/19) rats and transfected with Lipofectamine 2000 at DIV6 as in Levinson et al. (Levinson, J. N. et al. J. Biol. Chem. 280: 17312-17319, 2005). […]
Images of HeLa cells are collected on a Zeiss Axiovert 200M inverted epifluorescence microscope using a 40× oil-immersion lens and a MicroMAX CCD camera (Roper Scientific; Tucson, Ariz.). CFP (420DF20 excitation, 450DRLP dichroic, 475DF40 emission) and Alexa568 (560DF20 excitation, 585DRLP dichroic, 605DF30 emission) images are collected and analyzed using OpenLab software (Improvision; Lexington, Mass.). Fluorescence images are background-corrected. […] Images are scaled to 16 bits and analyzed in Northern Eclipse (Empix Imaging; Ontario, Canada) with user-written software. […] Results are then calculated in terms of clusters per micrometer of dendrite. For assessment of pre-synaptic terminals, clusters are determined as before and average grey levels of clusters are compared between transfected dendrites and untransfected dendrites within the same field of view. […]

[3] = test system: biotinylated AP-CFP-TM on HeLa cells; experiment: Staining of biotinylated AP-CFP-TM on HeLa with Alexa Fluor 568-conjugated avidins; assay type: cell-based; settings: avidin, Alexa Fluor 568 conjugate
Experimental: Enzymatic biotinylation and imaging of HeLa transfectants are performed as previously described (Howarth, M. et al., Proc. Natl. Acad. Sci. USA 102: 7583-7588, 2005), except instead of 10 μM biotin and 1 mM ATP, we add 10 μM biotin-AMP (synthesized according to Coleman and Huang; Coleman, T. M. and Huang, F. Chem. Biol. 9: 1227-1236, 2002) to give equivalent biotinylation but minimizing the risk of purinoreceptor activation by ATP (Rathbone, M. P. et al., Prog. Neurobiol. 59: 663-690, 1999). […] Biotinylation of neurons is performed at day in vitro (DIV) 8 in Hanks' Balanced Salt Solution (HBSS) (Invitrogen) with 0.2 μM biotin ligase and 10 μM biotin-AMP for 5 min at 37° C. […] Neurons are washed with NeuroBasal media (Invitrogen) supplemented with B-27 (Invitrogen), 50 U/mL penicillin, 50 μg/mL streptomycin, and 0.2 mM L-glutamine and chased in the same medium for 0 or 2 hr at 37° C. Cells are then fixed in −20° C. methanol. There was no signal from wild-type avidin labeling if neurons were instead transfected with Ala-neuroligin-1 containing a point mutation in AP, confirming the specificity of labeling. […]
Images of HeLa cells are collected on a Zeiss Axiovert 200M inverted epifluorescence microscope using a 40× oil-immersion lens and a MicroMAX CCD camera (Roper Scientific; Tucson, Ariz.). CFP (420DF20 excitation, 450DRLP dichroic, 475DF40 emission) and Alexa568 (560DF20 excitation, 585DRLP dichroic, 605DF30 emission) images are collected and analyzed using OpenLab software (Improvision; Lexington, Mass.). Fluorescence images are background-corrected. […] Images are scaled to 16 bits and analyzed in Northern Eclipse (Empix Imaging; Ontario, Canada) with user-written software. […] Results are then calculated in terms of clusters per micrometer of dendrite. For assessment of pre-synaptic terminals, clusters are determined as before and average grey levels of clusters are compared between transfected dendrites and untransfected dendrites within the same field of view. […] “n” represents the number of transfected neurons for which clusters were measured. […]

N23A, S27D: Streptavidin double mutant, still a tetramer, one of the weakest reported affinities for biotin
binding to biotinylated cells (biotinylated cells): still bound to biotinylated cells | Kd [1]: 71 µM

wild-type avidin: Wild-type avidin tetramer of four wild-type monomers (SEQ ID NO:17) [reference compound]
staining pattern of labeled AP-neuroligin-1 [2]: distinct aggregates | Alexa staining of biotinylated AP-CFP-TM [3]: detected equally well
